From patent US8614239B2 (Novartis AG, priority 2009, dated 2013)

Legend:
[1] = tested on: A375 cells; assay: Cell viability assay in A375 cells (XTT); assay type: cell-based; details: XTT read-out three days after compound addition
Protocol: The cell viability assay in A375 cells is set up in a 96-well plate format using XTT. XTT is a yellow tetrazolium salt that is cleaved to an orange formazan dye by the mitochondria of metabolically active cells. The procedure allows for rapid determination in a microtitre plate, to give reproducible and sensitive results.
A375 cells are grown in DMEM media containing 10% FBS and 1 mM sodium pyruvate. Cells are trypsinized and seeded at 1000 cells/well. After allowing the cells to adhere overnight, compound is added to the wells at the following final concentrations: 10, 3, 1, 0.3, 0.1, 0.03, 0.01, 0.001, and 0.0001 μM. The assay is set up in triplicates for each concentration. DMSO concentrations are kept at 0.5%/well. Three days after compound addition, the XTT assay is performed. Wells are washed once with PBS. 100 μL of DMEM media without phenol red or FBS is added to each well. A working solution of XTT containing 1 mg/ml XTT and 100 μL of PMS (stock concentration 0.383 mg/ml) per 5 ml is prepared. 50 μL of the working solution of XTT is added to each well. Absorbance of the plate is read at 465 nm using a Spectramax 190 (Molecular Devices). The absorbance from wells with media and XTT alone, but without cells is considered the blank and subtracted from readings from all wells.
Percentage viability is calculated considering the blank subtracted value from wells treated with DMSO alone as 100% viable. G150 values are calculated using Graphpad Prism, using non-linear regression curve fit for sigmoidal dose response (variable slope).
The cell viability assay is further described in Scudiero, et. al., Cancer Research (1988) 48, 4827-4833; Weislow, et. al., J. Natl. Cancer Institute, (1989) 81, 577-586; and Roehm, et. al., J. Immunol. Methods [1991] 142:257-265.
(§1) The compounds of the above Examples were evaluated as inhibitors of the MAP kinase pathway in a BRAF-MEK-ERK enzymatic cascade assay and in a cell viability assay, the results of which are collated in Table 1 below.

[2] = tested on: BRAF (V599E)-MEK1-ERK2 cascade (MAP kinase pathway); assay: BRAF-MEK-ERK enzymatic cascade assay (TR-FRET); assay type: biochemical, human; details: compound at 10 μM, 45 min pre-incubation with enzymes, 100 μM ATP, 90 min reaction
From the text: A BRAF-MEK-ERK cascade assay is used to evaluate the effects of these compounds as inhibitors of the MAP kinase pathway. An enzymatic cascade assay is set up using recombinant human activated BRAF (V599E) kinase (Cat No. 14-557), human full length unactive MEK1 kinase (Cat No. 14-706) and human full length unactive MAP Kinase 2/ERK2 (Cat No. 14-536) enzymes procured from Upstate. TR-FRET (Time resolved fluorescence resonance energy transfer) detection technology is used for the read out. The assay buffer solution contains 50 mM Tris pH 7.5, 10 mM MgCl2, 1 mM DTT, 0.01% Tween 20, 0.1 nM activated BRAF, 2 nM unactive MEK1, 10 nM unactive ERK2, 100 μM ATP and 500 nM long chain biotin-peptide substrate (LCB-FFKNIVTPRTPPP) in a 384 well format. The kinase reaction is stopped after 90 minutes with 10 mM EDTA and Lance detection mix (2 nM Eu-labeled phospho-serine/threonine antibody (Cat. No. AD0176-Perkin Elmer), 20 nM SA-APC (Cat No. CR130-100-Perkin Elmer) is added. The TR-FRET signal (Excitation at 340 nm, Emission at 615 nm and 665 nm) is read with […] on a Victor3 V fluorimeter. The data is calculated using the ratio of readings at 665 nm to 615 nm. The final concentration of DMSO is 2.5% in the assay. Compounds are screened at 10 μM concentration with pre-incubation of the enzymes in the presence of test compound for 45 minutes. […]
These assays described above are fully detailed in Han, Shulin, et. al., Bioorganic & Medicinal Chemistry Letters (2005) 15, 5467-5473, and in Yeh, et. al., Clin Cancer Res (2007) 13 (5), 1576-1583.
as §1

GI50 ([1]; listed as 1J-isomer 1) [nM]	% inhibition (10 μM) [2] [%]	GI50 ([1]; listed as 1J-isomer 2) [nM]	GI50 ([1]; Homo sapiens, A-375, 72 h) [nM]	Compound
96	99	–	–	O=S(=O)(Nc1c(Nc2ccc(I)cc2F)c(F)c(F)c2ncoc12)C1(CC(O)CO)CC1 (single isomer, unassigned) [Example 1J-isomer 1, N-(4,5-Difluoro-6-(2-fluoro-4-iodophenylamino)benzo[d]oxazol-7-yl)-1-(2,3-dihydroxypropyl)cyclopropane-1-sulfonamide]
–	100	–	2010	Cc1nc2c(F)c(F)c(Nc3ccc(I)cc3F)c(NS(=O)(=O)N(C)C)c2o1 [Example 1B, Dimethylsulfamic acid [4,5-difluoro-6-(2-fluoro-4-iodo-phenylamino)-2-methyl-benzooxazol-7-yl]-amide]
–	100	–	646	CN(C)S(=O)(=O)Nc1c(Nc2ccc(I)cc2F)c(F)c(F)c2ncoc12 [Example 1C, Dimethylsulfamic acid [4,5-difluoro-6-(2-fluoro-4-iodo-phenylamino)-benzooxazol-7-yl]amide]
–	100	–	940	C=CCC1(S(=O)(=O)Nc2c(Nc3ccc(I)cc3F)c(F)c(F)c3ncoc23)CC1 [Example 1D, 1-Allyl-cyclopropanesulfonic acid [4,5-difluoro-6-(2-fluoro-4-iodo-phenylamino)-benzooxazol-7-yl]-amide]
–	93	–	1000	Cc1nc2c(F)c(F)c(Nc3ccc(I)cc3F)c(NS(=O)(=O)C3CC3)c2o1 [Example 1E, Cyclopropanesulfonic acid [4,5-difluoro-6-(2-fluoro-4-iodo-phenylamino)-2-methyl-benzooxazol-7-yl]amide]
–	99	–	2370	CN(C)S(=O)(=O)Nc1c(Nc2ccc(Br)cc2F)c(F)c(F)c2ncoc12 [Example 1F, Dimethylsulfamic acid [4,5-difluoro-6-(2-fluoro-4-bromo-phenylamino)-benzooxazol-7-yl]-amide]
–	10	–	–	Cc1nc2c(F)c(F)c(Nc3ccc(Br)cc3F)c(NS(=O)(=O)C3CC3)c2o1 [Example 1H, Cyclopropanesulfonic acid [6-(4-bromo-2-fluoro-phenylamino)-4,5-difluoro-2-methyl-benzooxazol-7-yl]-amide]
–	100	–	47	O=S(=O)(Nc1c(Nc2ccc(I)cc2F)c(F)c(F)c2ncoc12)C1(CC(O)CO)CC1 (centres unmarked) [Example 1I, 1-(2,3-Dihydroxy-propyl)-cyclopropanesulfonic acid [4,5-difluoro-6-(2-fluoro-4-iodo-phenylamino)-benzooxazol-7-yl]-amide]
–	99	–	2700	O=S(=O)(Nc1c(Nc2ccc(I)cc2F)c(F)c(F)c2ncoc12)C1CC1CO (centres unmarked) [Example 1L, N-(4,5-Difluoro-6-(2-fluoro-4-iodophenylamino)benzo[d]oxazol-7-yl)-2-(hydroxymethyl)cyclopropane-1-sulfonamide]
–	100	–	17	O=S(=O)(Nc1c(Nc2ccc(I)cc2F)c(F)c(F)c2ccoc12)C1(CC(O)CO)CC1 (centres unmarked) [Example 2B, 1-(2,3-Dihydroxy-propyl)-cyclopropanesulfonic acid [4,5-difluoro-6-(2-fluoro-4-iodo-phenylamino)-benzofuran-7-yl]amide]
–	99	–	119	O=S(=O)(Nc1c(Nc2ccc(I)cc2F)c(F)c(F)c2ccoc12)C1CC1CO (centres unmarked) [Example 2D, 2-Hydroxymethyl-cyclopropanesulfonic acid [4,5-difluoro-6-(2-fluoro-4-iodo-phenylamino)-benzofuran-7-yl]-amide]

Further lines, the compound ahead of its results:

Compound	GI50 ([1]; listed as 1J-isomer 1) [nM]	% inhibition (10 μM) [2] [%]	GI50 ([1]; listed as 1J-isomer 2) [nM]	GI50 ([1]; Homo sapiens, A-375, 72 h) [nM]
O=S(=O)(Nc1c(Nc2ccc(I)cc2F)c(F)c(F)c2ncoc12)C1(CC(O)CO)CC1 (single isomer, unassigned) [Example 1J-isomer 2, N-(4,5-Difluoro-6-(2-fluoro-4-iodophenylamino)benzo[d]oxazol-7-yl)-1-(2,3-dihydroxypropyl)cyclopropane-1-sulfonamide]	–	99	46	–
O=S(=O)(Nc1c(Nc2ccc(Br)cc2F)c(F)c(F)c2ncoc12)C1CC1 [Example 1G]	–	92	–	> 10000
O=S(=O)(Nc1c(Nc2ccc(I)cc2F)c(F)c(F)c2ncoc12)C1CC1COCc1ccccc1 (centres unmarked) [Example 1K, 2-(Benzyloxymethyl)-N-(4,5-difluoro-6-(2-fluoro-4-iodophenylamino)benzo[d]oxazol-7-yl)cyclopropane-1-sulfonamide]	–	100	–	5700
O=S(=O)(Nc1c(Nc2ccc(I)cc2F)c(F)c(F)c2ncoc12)C1(COCc2ccccc2)CC1 [Example 1M, 1-(Benzyloxymethyl)-N-(4,5-difluoro-6-(2-fluoro-4-iodophenylamino)benzo[d]oxazol-7-yl)cyclopropane-1-sulfonamide]	–	95	–	3550
O=S(=O)(Nc1c(Nc2ccc(I)cc2F)c(F)c(F)c2ncoc12)C1(CO)CC1 [Example 1N, N-(4,5-Difluoro-6-(2-fluoro-4-iodophenylamino)benzo[d]oxazol-7-yl)-1-(hydroxymethyl)cyclopropane-1-sulfonamide]	–	100	–	186
O=S(=O)(Nc1c(Nc2ccc(I)cc2F)c(F)c(F)c2ccoc12)C1CC1 [Example 2A, Cyclopropane sulfonic acid [4,5-difluoro-6-(2-fluoro-4-iodo-phenylamino)-benzofuran-7-yl]amide]	–	99	–	29
O=S(=O)(Nc1c(Nc2ccc(I)cc2F)c(F)c(F)c2ccoc12)C1(CCO)CC1 [Example 2C, 1-(2-Hydroxy-ethyl)-cyclopropanesulfonic acid [4,5-difluoro-6-(2-fluoro-4-iodo-phenylamino)-benzofuran-7-yl]amide]	–	100	–	12
